Positions count from the first letter of the chain named.
Columns and labels:
[1] = biological target: T1, AT1 C76A/L112C/C289A mutant receptor (Rattus norvegicus, UniProt P25095, C289A/C76A/L112C); assay: substituted cysteine accessibility mapping (SCAM), C76A/L112C/C289A; type: binding; parameters: key to Cysteine accessibility at Leu112 compared to ligand (-): Less and More indicate that the AT1 receptor is less or more accessible to the ligand pocket, respectively; Less and More indicate that the AT1 receptor is less or more accessible to the ligand pocket, respectively; No change; settings: for % inhibition of 125I-[Sar1,Ile8]Ang II binding by MTSEA+ after ligand pre-incubation: C76A/L112C/C289A mutant, 1 µM ligand, comparison in words; for Cysteine accessibility at Leu112 compared to ligand (-): SCAM, 1 µM ARB, […] MTSEA+, COS1 membranes
T1 construct: expressed in transfected cells; host or cells: COS1
T1 sequence (P25095 1-359 C76A/L112C/C289A): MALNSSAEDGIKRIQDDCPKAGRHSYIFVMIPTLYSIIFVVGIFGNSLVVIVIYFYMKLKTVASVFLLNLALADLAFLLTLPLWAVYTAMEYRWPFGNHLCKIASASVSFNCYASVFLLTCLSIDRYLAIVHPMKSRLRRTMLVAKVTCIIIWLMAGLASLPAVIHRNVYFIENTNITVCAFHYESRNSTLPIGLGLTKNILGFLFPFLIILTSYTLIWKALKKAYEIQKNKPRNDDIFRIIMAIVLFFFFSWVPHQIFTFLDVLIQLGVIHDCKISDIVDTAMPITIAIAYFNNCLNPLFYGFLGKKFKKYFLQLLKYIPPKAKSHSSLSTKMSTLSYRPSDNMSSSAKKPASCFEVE
Source text: As we reported previously, the percentage (%) inhibition of ^125I-[Sar^1, Ile^8] AngII binding by methanethiosulphonate ethyl-ammonium (MTSEA^+) reagent was approximately 30% on AT1 receptor, since Cys^76 in TM2 was accessible to water within the ligand pocket. In addition, mechanical stretching increased the accessibility of Cys^289 by inducing a change in the conformation of TM7 [22]. To differentiate between single and multiple movements of one or more native cysteines, we created TM3 residues that were substituted with cysteine one at a time from […] to Phe^117 using the C76A/C289A mutant genetic background and evaluated each triple mutant for MTSEA sensitivity.
Figure 3 Changes in cysteine accessibility in COS1 cells expressing C76A/C289A mutant receptors in which the transmenbrane 3 residues from Ala^106 to Phe^117, except for position 113, were successively replaced by cysteine. 1 µM of ARBs, n=4–9, *p<0.05 vs. no treatment. #p<0.05 vs. C76A/C289A.
The SCAM method has been used to probe relative changes in the conformation of constitutively active AT1 receptor [20]–[22] and other GPCRs, [30] by validating the presence of Cys residues within the ligand pocket. We used a highly reactive, sulfhydryl-specific reaction with methanethiosulfonyl ethyl-ammonium (MTSEA^+), which reacts a billion times faster with water-exposed and ionized Cys than with lipid-exposed and un-ionized Cys. In this reaction, a positively charged sulfonylmethylammonium group is added to a water-exposed Cys. Aliquots of cell membranes are incubated with or without ARBs for 20 min in phosphate buffer at room temperature. The membranes are then diluted with same buffer and centrifuged. After washout the cell membranes, the membranes are incubated with 2.5 mM MTSEA^+ at room temperature for 2 min in HEPES buffer (pH7.4). The Membranes are then diluted with same buffer to stop the reaction and centrifuged. One hundred µl aliquots were used to assay for ^125I-[Sar^1,Ile^8]Ang II binding. The fractional inhibition is calculates 1 − [(specific binding after MTX reagent) / (specific binding without reagent)].

[2] = biological target: T2, AT1 C76A/F117C/C289A mutant receptor (Rattus norvegicus, UniProt P25095, C289A/C76A/F117C); assay: competition binding, C76A/F117C/C289A mutant; settings: for Kd ratio relative to WT (in parentheses): C76A/F117C/C289A / WT; for Kd: C76A/F117C/C289A, COS1 membranes, read-out: Binding affinity (Kd)
T2 construct: expressed in transfected cells; host or cells: COS1 cells (membranes)
T2 sequence (P25095 1-359 C76A/F117C/C289A): T1 sequence (P25095 1-359 C76A/L112C/C289A) with C112L, F117C
Experimental: (§1) The Kd and Bmax values of receptor binding were determined by ^125I-[Sar^1, Ile^8] […] Membranes expressing the WT or mutant AT1 receptors were incubated with 100 pM ^125I-[Sar^1, Ile^8] […] The binding reaction was terminated by filtering the incubation mixture through Whatman GF/C glass filters, and the residues were extensively washed further with binding buffer. The bound ligand fraction was determined from the counts per minute (cpm) remaining on the membrane. Binding kinetics values were determined as previously described.

[3] = biological target: T3, AT1 C76A/S109C/C289A mutant receptor (Rattus norvegicus, UniProt P25095, C289A/C76A/S109C); assay: competition binding, C76A/S109C/C289A mutant; settings: for Kd ratio relative to WT (in parentheses): C76A/S109C/C289A / WT; for Kd: C76A/S109C/C289A, COS1 membranes, read-out: Binding affinity (Kd)
T3 construct: expressed in transfected cells; host or cells: COS1
T3 sequence (P25095 1-359 C76A/S109C/C289A): T1 sequence (P25095 1-359 C76A/L112C/C289A) with S109C, C112L
Experimental: as §1

[4] = biological target: T1, AT1 C76A/L112C/C289A mutant receptor; assay: competition binding, C76A/L112C/C289A mutant; settings: for Kd ratio relative to WT (in parentheses): C76A/L112C/C289A / WT; for Kd: C76A/L112C/C289A, COS1 membranes, read-out: Binding affinity (Kd)
Experimental: as §1

SMILES	% inhibition of 125I-[Sar1,Ile8]Ang II binding by MTSEA+ after ligand pre-incubation [1]	Cysteine accessibility at Leu112 compared to ligand (-) [1]	Cysteine accessibility at Leu112 compared to ligand (-) ([1]; listed as olmesartan)	Kd ratio relative to WT (in parentheses) [2]	Kd [2]	Kd ratio relative to WT (in parentheses) [3]	Kd [3]	Kd ratio relative to WT (in parentheses) [4]	Kd [4]
CCCc1nc(C(C)(C)O)c(C(=O)O)n1Cc1ccc(-c2ccccc2-c2nnn[nH]2)cc1 [Olmesartan, olmesartan, reference compound]	significantly lower than that with ligand (-)	Less	less accessibility	1.0 fold	2.4 ± 1.3 nM	13 fold	29 ± 5 nM	2.7 fold	6.1 ± 2.1 nM
CCCc1nc(C(C)(C)O)c(C(N)=O)n1Cc1ccc(-c2ccccc2-c2nnn[nH]2)cc1 [R239470]	significantly lower than that with ligand (-)	–	–	2.8 fold	2.2 ± 0.2 nM	14 fold	11 ± 3 nM	4.0 fold	3.2 ± 1.3 nM
CCCc1nc(C(C)(C)O)c(C(N)=O)n1Cc1ccc(-c2cc(Cc3ccc(O)cc3)ccc2-c2nnn[nH]2)cc1 [R794847]	significantly lower than those with olmesartan and R239470	–	–	0.6 fold	29 ± 9 nM	2.0 fold	96 ± 18 nM	1.3 fold	62 ± 9 nM

— paper PMC3375280 (PLoS ONE, 2012)
